Consider 51 compounds from US20110028447A1, “INDAZOLE DERIVATIVES” (Pfizer Inc., priority 2008, published 2011).

Each structure is given as a SMILES string. A value given as a limit tells only on which side of the number the result lay.

Sequence of human CB1 receptor (P21554 whole entry): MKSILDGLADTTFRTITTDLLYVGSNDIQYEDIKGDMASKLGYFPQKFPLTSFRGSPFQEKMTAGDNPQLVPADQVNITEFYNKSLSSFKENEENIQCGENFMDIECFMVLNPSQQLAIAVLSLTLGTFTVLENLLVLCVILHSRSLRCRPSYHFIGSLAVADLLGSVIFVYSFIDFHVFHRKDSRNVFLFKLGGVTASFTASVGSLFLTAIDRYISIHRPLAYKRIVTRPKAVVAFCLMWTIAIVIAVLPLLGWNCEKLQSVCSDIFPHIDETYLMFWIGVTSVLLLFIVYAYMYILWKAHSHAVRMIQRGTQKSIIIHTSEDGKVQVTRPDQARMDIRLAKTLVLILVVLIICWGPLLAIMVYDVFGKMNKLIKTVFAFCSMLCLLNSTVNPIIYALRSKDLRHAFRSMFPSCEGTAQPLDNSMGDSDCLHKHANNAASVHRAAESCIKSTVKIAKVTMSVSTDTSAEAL

In the first test the target is human CB1 receptor (Homo sapiens, UniProt P21554). The test can be described thus: Human CB1 receptor binding, [3H] CP-55,940 displacement on HEK cell membranes. Set-up: expressed in transfected cells; host or cells: HEK cells, doxycycline-induced; membrane preparation. The note with it: CB1 Ki. The method, then:
The Human CB1 receptor binding affinity and other biological activities of the compounds of this invention are determined by the following procedures. Membrane preparation: Human Embryonic Kidney (HEK) Cells expressing the human CB1 receptor under transcriptional regulation of a tetracycline inducible promoter were grown in Dulbecco's Modified Essential Medium with sodium pyruvate (Invitrogen, Carlsbad, Calif.) containing 10% tetracycline free fetal bovine serum (Clonetech, Mountain View, Calif.) 100 μg/ml hygromycin (Calbiochem, San Diego, Calif.), 5 μg/ml blasticidin (Invitrogen). CB1 receptor expression was induced by addition of 1 μg/ml doxycycline (Calbiochem) and incubation for an additional 24 hours. Cells were released from flasks using Cell Dissociation Buffer (Invitrogen). Cells were pelleted by centrifugation at 500×G for 5 minutes. Membranes were prepared by resuspending cells in ice cold TEE Buffer (25 mM Tris pH 7.4, 5 mM EDTA, 5 mM EGTA, Complete Protease Inhibitor (Roche, Basel, Switzerland)). Cells were lysed with 12 strokes of a dounce homogenizer. Unlysed cells were pelleted by centrifugation at 500×G for 5 minutes. Membranes were pelleted by centrifugation at 25,000×G for 30 minutes. Membranes were resuspended in TEE, dounced 12 strokes, and pelleted a second time at 25,000×G for 30 minutes. Membrane pellet was resuspended in 50 mM Tris pH 7.4, 100 mM NaCl, 3 mM MgCl2, 0.2 mM EGTA, Complete Protease Inhibitor (Roche). Protein concentration was determined using the Micro-BCA Protein Assay Kit (Pierce, Rockford, Ill.) using BSA as a standard. Membranes were quick frozen and stored at −80 degrees Celsius until use.
Binding experiments: 50 μl of test compound was incubated with 50 μl of [^3H] CP-55,940 (Perkin Elmer, Boston, Mass.) (final concentration=[…]) and 150 μl of membrane homogenate (1 μg/well) in polypropylene 96-well plates (Corning, Acton, Mass.). Final reaction conditions were 50 mM Tris pH 7.4, 100 mM NaCl, 3 mM MgCl2, 0.2 mM EGTA, 0.04% BSA. Nonspecific binding was determined by incubation with 50 μM WIN-55, 212-2 (Tocris, Ellisville, Mo.). After incubation at room temperature for 60 minutes reactions were harvested by vacuum filtration through Unifilter GF/B-96 filters (Perkin Elmer) that had been presoaked in assay buffer containing 0.5% BSA (Sigma, St. Louis, Mo.) using a FilterMate Plate Harvester (Perkin Elmer). Filters were rinsed 4 times with 50 mM Tris pH 7.4, 0.025% Tween-20 and dried at 50 degrees Celsius for at least 30 minutes. 40 μl of Microscint-20 (Perkin Elmer) was added per well, and plates were counted using a Top-Count Microplate Scintillation Counter (Perkin Elmer). Binding data were analyzed and EC50 and K, values calculated using Graph Pad Prism 4.0 Software.
One may read the Ki as the dissociation constant of the complex between target and ligand, obtained from inhibition or displacement. With `CC(C)(C)[C@H](NC(=O)c1nn(Cc2ccc(C#N)cc2)c2cc(F)ccc12)C(=O)NC[C@H]1C[C@H]1CO` [Example 491], the Ki was 0.0885 µM.

With `CC(C)(C)[C@H](NC(=O)c1nn(Cc2ccc(C#N)cc2)c2ccccc12)C(=O)NC[C@H](O)CO` [Example 384], the Ki is 0.286 µM.

Take `CC(C)(C)[C@H](NC(=O)c1nn(Cc2ccc(F)cc2)c2ccc(Cl)cc12)C(N)=O` [Example 429]: the affinity corresponds to a Ki of 0.00044 µM. Regarding `CC(C)(C)[C@H](NC(=O)c1nn(Cc2ccc(C#N)cc2)c2ccccc12)C(=O)NCC1CC1` [Example 407], the Ki is 0.0362 µM.

`CC(C)(C)[C@H](NC(=O)c1nn(Cc2ccc(C#N)cc2F)c2ccccc12)C(=O)N[C@H]1C[C@@H](C(N)=O)C1` [Example 397] returned a Ki of 0.243 µM. The same measure, in the same setting: in the case of `CC(C)NC(=O)[C@@H](NC(=O)c1nn(Cc2ccc(F)cc2)c2ccc(Cl)cc12)C(C)(C)C` [Example 437] it was 0.00279 µM.

Compound `COc1cc(C#N)ccc1Cn1nc(C(=O)N[C@H](C(=O)NC(CO)CO)C(C)(C)C)c2ccccc21` [Example 391] came in with a Ki of more than 0.4 µM.

Compound `COc1cc(C#N)ccc1Cn1nc(C(=O)N[C@H](C(=O)N[C@H]2C[C@@H](C(N)=O)C2)C(C)(C)C)c2ccccc21` [Example 399] returned a Ki of more than 0.4 µM. `CC(C)(C)[C@H](NC(=O)c1nn(Cc2ccc(C#N)cc2)c2cc(F)ccc12)C(=O)NC(CO)CO` [Example 296] came in with a Ki of 0.0641 µM. The compound `CC(C)(C)[C@H](NC(=O)c1nn(Cc2ccc(C#N)cc2F)c2c(F)c(F)ccc12)C(=O)NC[C@@H](O)CO` [Example 360] showed a Ki of 0.0735 µM. On the same count and under the same terms, in the case of `CC(C)(C)[C@H](NC(=O)c1nn(Cc2ccc(C#N)cc2)c2ccccc12)C(=O)NO` [Example 412] it was more than 0.4 µM; in that of `CC(C)(C)[C@H](NC(=O)c1nn(Cc2ccc(C#N)cc2)c2c(F)cccc12)C(=O)N[C@H]1C[C@H](O)C1` [Example 355], 0.0529 µM. Turning to `CC(C)(C)[C@H](NC(=O)c1nn(Cc2ccc(F)cc2)c2ccccc12)C(=O)N[C@H]1CCC[C@@H]1O` [Example 279], the affinity corresponds to a Ki of 0.0541 µM. Same read-out and setting: in the case of `CC(C)(C)[C@H](NC(=O)c1nn(Cc2ccc(C#N)cc2)c2cc(F)ccc12)C(=O)NCC(N)=O` [Example 301] it was 0.0703 µM; in that of `CC(C)(C)[C@H](NC(=O)c1nn(Cc2cccc3ccccc23)c2ccccc12)C(=O)NCCO` [Example 274], more than 0.4 µM. With `COc1cc(C#N)ccc1Cn1nc(C(=O)N[C@H](C(N)=O)C(C)(C)C)c2ccccc21` [Example 385], the Ki amounted to 0.166 µM. Same read-out and setting: in the case of `CC(C)(C)[C@H](NC(=O)c1nn(Cc2ccc(C#N)cc2F)c2c(F)c(F)ccc12)C(=O)NC[C@H](O)CO` [Example 361] it was 0.0416 µM; in that of `CC(C)(C)[C@H](NC(=O)c1nn(Cc2ccc(C#N)cc2)c2ccccc12)C(=O)NC1CCC1` [Example 406], 0.0897 µM; in that of `CC(C)(C)[C@H](NC(=O)c1nn(Cc2cccc3ccccc23)c2ccccc12)C(=O)NCC(N)=O` [Example 275], more than 0.4 µM. On to `CC(C)(C)[C@H](NC(=O)c1nn(Cc2ccc(F)cc2)c2ccc(Cl)cc12)C(=O)NC(CO)CO` [Example 435], for which the Ki is 0.0065 µM. The same measure, in the same setting: in the case of `CC(C)(C)[C@H](NC(=O)c1nn(Cc2ccc(C(F)(F)F)cc2)c2ccccc12)C(=O)NCCS(N)(=O)=O` [Example 257] it was 0.224 µM; in that of `CC(C)(C)[C@H](NC(=O)c1nn(Cc2ccc(C#N)cc2)c2ccc(Cl)cc12)C(=O)NCCS(N)(=O)=O` [Example 444], more than 0.4 µM; in that of `COC(=O)[C@@H](O)CNC(=O)[C@@H](NC(=O)c1nn(Cc2ccc(C#N)cc2)c2ccccc12)C(C)(C)C` [Example 237], more than 0.4 µM. On the same count and under the same terms, in the case of `CC(C)(C)[C@@H](NC(=O)c1nn(Cc2ccc(C#N)cc2)c2ccccc12)C(N)=O` [Example 383] it was more than 0.4 µM; in that of `CC(C)(C)[C@H](NC(=O)c1nn(Cc2ccc(F)cc2)c2ccccc12)C(=O)N[C@H]1CCCC[C@@H]1O` [Example 252], 0.205 µM. Same read-out and setting: in the case of `CC(C)(C)[C@H](NC(=O)c1nn(Cc2ccc(C(F)(F)F)cc2)c2ccccc12)C(=O)NC[C@@H](O)CO` [Example 260] it was more than 0.4 µM; in that of `CC(C)(C)[C@H](NC(=O)c1nn(Cc2ccc(C#N)cc2)c2ccccc12)C(=O)N[C@@H]1CNC(=O)C1` [Example 456], 0.0438 µM.

`CC(C)(C)[C@H](NC(=O)c1nn(Cc2ccc(F)cc2)c2ccc(Cl)cc12)C(=O)NC[C@@H](O)CO` [Example 434] yielded a Ki of 0.0551 µM. The same measure, in the same setting: in the case of `CC(C)(C)[C@H](NC(=O)c1nn(Cc2ccc(C#N)cc2)c2c(F)cccc12)C(=O)NCC1CCC(=O)N1` (stereo partly drawn) [Example 402] it was 0.277 µM.

In turn, `CC(C)(C)[C@H](NC(=O)c1nn(Cc2ccc(F)cc2)c2ccc(Cl)cc12)C(=O)NCCS(C)(=O)=O` [Example 433] came in with a Ki of 0.0355 µM. Same read-out and setting: in the case of `CN1CCN=C1CNC(=O)[C@@H](NC(=O)c1nn(Cc2ccc(F)cc2)c2ccccc12)C(C)(C)C` [Example 304] it was 0.152 µM; in that of `CC(C)(C)[C@H](NC(=O)c1nn(Cc2ccc(F)cc2)c2ccccc12)C(=O)N[C@@H](CO)C(=O)O` [Example 240], 0.152 µM. Turning to `CC(C)(C)[C@H](NC(=O)c1nn(Cc2cccc3ccccc23)c2ccccc12)C(=O)NC1CC1` [Example 273], the Ki is more than 0.4 µM. With `CC(C)(C)[C@H](NC(=O)c1nn(Cc2ccc(C#N)cc2)c2ccc(Cl)cc12)C(=O)NC(CO)CO` [Example 448], the Ki is more than 0.4 µM.

For the compound `CC(C)(C)[C@H](NC(=O)c1nn(Cc2ccc(F)cc2)c2ccccc12)C(=O)N[C@H](CO)C(=O)O` [Example 235], the Ki is 0.222 µM. For `CC(C)(C)[C@H](NC(=O)c1nn(Cc2ccc(C(F)(F)F)cc2)c2ccccc12)C(=O)NC[C@H](O)CO` [Example 256], the Ki stood at 0.0986 µM.

The test is the same for the next values; noted with them: read-out: CB1 Ki.
Regarding `CCOC(=O)[C@H]1C[C@@H](NC(=O)[C@@H](NC(=O)c2nn(Cc3ccc(C#N)cc3)c3ccccc23)C(C)(C)C)C1` [Example 380], the Ki was more than 0.4 µM. Consider `CC(C)(C)[C@H](NC(=O)c1nn(Cc2ccc(C#N)cc2)c2ccccc12)C(=O)NCc1nnc(C(=O)NCCO)o1` [Example 461], for which the Ki was more than 0.4 µM. As for `CC(C)(C)[C@H](NC(=O)c1nn(Cc2ccc(C#N)cc2F)c2ccccc12)C(=O)NCCN1CCNC(=O)C1` [Example 466], the Ki was more than 0.4 µM. The same measure, in the same setting: in the case of `CC(C)(C)[C@H](NC(=O)c1nn(Cc2ccc(F)cc2)c2ccccc12)C(=O)N1CCC(O)(CNC(=O)C2CC2)CC1` [Example 229] it was 0.0313 µM; in that of `CC(C)(C)[C@H](NC(=O)c1nn(Cc2ccc(F)cc2)c2ccccc12)C(=O)NCC(=O)NC(CO)CO` [Example 377], 0.0225 µM; in that of `CC(C)(C)[C@H](NC(=O)c1nn(Cc2ccc(F)cc2)c2c(Cl)cccc12)C(=O)NCc1ccc(C(=O)O)cc1` [Example 426], 0.09 µM. The same measure, in the same setting: in the case of `COc1cc(CNC(=O)[C@@H](NC(=O)c2nn(Cc3ccc(C#N)cc3)c3ccccc23)C(C)(C)C)on1` [Example 311] it was 0.147 µM. Take `CC(C)(C)[C@H](NC(=O)c1nn(Cc2ccc(F)cc2)c2ccccc12)C(=O)NCC1CN(C(N)=O)C1` [Example 347]: the Ki was determined as 0.0244 µM.

Consider `CC(C)(C)C(NC(=O)c1nn(Cc2ccccc2C(N)=O)c2ccccc12)C(N)=O` (stereo not drawn) [Example 34], for which the Ki was found to be 0.154 µM. On the same count and under the same terms, in the case of `CCNC(=O)OC1CCCN(C(=O)[C@@H](NC(=O)c2nn(Cc3ccc(F)cc3)c3ccccc23)C(C)(C)C)C1` (stereo partly drawn) [Example 317] it was 0.0311 µM. The same measure, in the same setting: in the case of `CC(C)(C)[C@H](NC(=O)c1nn(Cc2ccc(F)cc2)c2ccccc12)C(=O)NCc1[nH]nc2c1CCC2` [Example 460] it was 0.0246 µM. With `CC(C)(C)[C@H](NC(=O)c1nn(Cc2ccc(F)cc2)c2ccccc12)C(=O)NCc1nnc2n1CCC2` [Example 419], the Ki came to 0.11 µM. Consider `CC(C)(C)[C@H](NC(=O)c1nn(Cc2ccc(F)cc2F)c2ccccc12)C(=O)NCCN1CCNC(=O)C1` [Example 468], for which the Ki was 0.0235 µM. On to `Cc1cc(O)nc(CNC(=O)[C@@H](NC(=O)c2nn(Cc3ccc(C#N)cc3)c3c(F)cccc23)C(C)(C)C)n1` [Example 349], for which the Ki was 0.101 µM. Regarding `CC(C)(C)[C@H](NC(=O)c1nn(Cc2ccc(F)cc2)c2ccccc12)C(=O)N1C[C@@H]2C[C@H]1CN2CC(O)CO` (stereo partly drawn) [Example 232], the Ki worked out at 0.0542 µM.
